Laboratory results reported in the NIST ThermoML archive (doi:10.1016/j.jct.2018.12.018).
“And” between values parts separate entries of the source, which are not always exact repeats. Equal entries are not always repeated. ± gives the expanded uncertainty stated by the source.

Settings: Liquid; for speed of sound: Frequency=3 MHz, Single path-length method; for mass density: Vibrating tube method

CC(C)O [propan-2-ol]
Settings | mass density | speed of sound [m/s]
293.15 K, 100 kPa | 785.4 ± 0.7 kg/m3 and 785.46 ± 0.91 kg/m3 | 1157.5 ± 1
293.15 K, 1000 kPa | 786.2 ± 0.7 kg/m3 | –
293.15 K, 5000 kPa | 789.6 ± 0.7 kg/m3 | –
293.15 K, 10000 kPa | 793.6 ± 0.7 kg/m3 | –
293.15 K, 15000 kPa | 797.4 ± 0.7 kg/m3 | –
293.15 K, 20000 kPa | 801.1 ± 0.7 kg/m3 | –
293.15 K, 25000 kPa | 804.5 ± 0.8 kg/m3 | –
293.15 K, 30000 kPa | 807.9 ± 0.8 kg/m3 | –
293.15 K, 35000 kPa | 811.2 ± 0.8 kg/m3 | –
293.15 K, 40000 kPa | 814.2 ± 0.8 kg/m3 | –
293.15 K, 45000 kPa | 817.2 ± 0.8 kg/m3 | –
293.15 K, 50000 kPa | 820.1 ± 0.8 kg/m3 | –
293.15 K, 55000 kPa | 822.9 ± 0.8 kg/m3 | –
293.15 K, 60000 kPa | 825.6 ± 0.8 kg/m3 | –
293.15 K, 65000 kPa | 828.2 ± 0.9 kg/m3 | –
293.15 K, 70000 kPa | 830.8 ± 0.9 kg/m3 | –
293.15 K, 80000 kPa | 835.8 ± 0.9 kg/m3 | –
293.15 K, 90000 kPa | 840.5 ± 0.9 kg/m3 | –
293.15 K, 100000 kPa | 845 ± 0.9 kg/m3 | –
293.15 K, 110000 kPa | 849.4 ± 1 kg/m3 | –
293.15 K, 120000 kPa | 853.5 ± 1 kg/m3 | –
293.15 K, 130000 kPa | 857.6 ± 1 kg/m3 | –
293.15 K, 140000 kPa | 861.2 ± 1 kg/m3 | –
298.15 K, 100 kPa | 781.27 ± 0.91 kg/m3 and 781.4 ± 0.7 kg/m3 | 1139.7 ± 1
298.15 K, 1000 kPa | 782.1 ± 0.7 kg/m3 | –
298.15 K, 5000 kPa | 785.6 ± 0.7 kg/m3 | –
298.15 K, 10000 kPa | 789.8 ± 0.7 kg/m3 | –
298.15 K, 15000 kPa | 793.7 ± 0.7 kg/m3 | –
298.15 K, 20000 kPa | 797.3 ± 0.7 kg/m3 | –
298.15 K, 25000 kPa | 800.9 ± 0.8 kg/m3 | –
298.15 K, 30000 kPa | 804.3 ± 0.8 kg/m3 | –
298.15 K, 35000 kPa | 807.7 ± 0.8 kg/m3 | –
298.15 K, 40000 kPa | 810.8 ± 0.8 kg/m3 | –
298.15 K, 45000 kPa | 813.8 ± 0.8 kg/m3 | –
298.15 K, 50000 kPa | 816.7 ± 0.8 kg/m3 | –
298.15 K, 55000 kPa | 819.7 ± 0.8 kg/m3 | –
298.15 K, 60000 kPa | 822.5 ± 0.8 kg/m3 | –
298.15 K, 65000 kPa | 825.2 ± 0.9 kg/m3 | –
298.15 K, 70000 kPa | 827.6 ± 0.9 kg/m3 | –
298.15 K, 80000 kPa | 832.8 ± 0.9 kg/m3 | –
298.15 K, 90000 kPa | 837.5 ± 0.9 kg/m3 | –
298.15 K, 100000 kPa | 842.3 ± 1 kg/m3 | –
298.15 K, 110000 kPa | 846.4 ± 1 kg/m3 | –
298.15 K, 120000 kPa | 850.8 ± 1 kg/m3 | –
298.15 K, 130000 kPa | 854.8 ± 1 kg/m3 | –
298.15 K, 140000 kPa | 858.7 ± 1.1 kg/m3 | –
303.15 K, 100 kPa | 777 ± 0.91 kg/m3 | 1122.6 ± 1
313.15 K, 100 kPa | 768.21 ± 0.91 kg/m3 and 768.2 ± 0.7 kg/m3 | 1087.2 ± 1
313.15 K, 1000 kPa | 769.1 ± 0.7 kg/m3 | –
313.15 K, 5000 kPa | 773 ± 0.7 kg/m3 | –
313.15 K, 10000 kPa | 777.4 ± 0.7 kg/m3 | –
313.15 K, 15000 kPa | 781.8 ± 0.7 kg/m3 | –
313.15 K, 20000 kPa | 785.7 ± 0.7 kg/m3 | –
313.15 K, 25000 kPa | 789.5 ± 0.8 kg/m3 | –
313.15 K, 30000 kPa | 793.3 ± 0.8 kg/m3 | –
313.15 K, 35000 kPa | 796.9 ± 0.8 kg/m3 | –
313.15 K, 40000 kPa | 800.1 ± 0.8 kg/m3 | –
313.15 K, 45000 kPa | 803.4 ± 0.8 kg/m3 | –
313.15 K, 50000 kPa | 806.5 ± 0.8 kg/m3 | –
313.15 K, 55000 kPa | 809.6 ± 0.8 kg/m3 | –
313.15 K, 60000 kPa | 812.5 ± 0.9 kg/m3 | –
313.15 K, 65000 kPa | 815.4 ± 0.9 kg/m3 | –
313.15 K, 70000 kPa | 818.2 ± 0.9 kg/m3 | –
313.15 K, 80000 kPa | 823.4 ± 0.9 kg/m3 | –
313.15 K, 90000 kPa | 828.5 ± 1 kg/m3 | –
313.15 K, 100000 kPa | 833.1 ± 1 kg/m3 | –
313.15 K, 110000 kPa | 837.8 ± 1 kg/m3 | –
313.15 K, 120000 kPa | 842.1 ± 1 kg/m3 | –
313.15 K, 130000 kPa | 846.4 ± 1.1 kg/m3 | –
313.15 K, 140000 kPa | 850.4 ± 1.1 kg/m3 | –
323.15 K, 100 kPa | 759.07 ± 0.91 kg/m3 | 1051.8 ± 1
333.15 K, 100 kPa | 749.42 ± 0.91 kg/m3 and 749.4 ± 0.7 kg/m3 | 1015.3 ± 1
333.15 K, 1000 kPa | 750.5 ± 0.7 kg/m3 | –
333.15 K, 5000 kPa | 754.9 ± 0.7 kg/m3 | –
333.15 K, 10000 kPa | 760 ± 0.7 kg/m3 | –
333.15 K, 15000 kPa | 764.9 ± 0.7 kg/m3 | –
333.15 K, 20000 kPa | 769.3 ± 0.8 kg/m3 | –
